Reference: US20210379199A1, “COPPER NANOCLUSTERS, COMPOSITION COMPRISING THE SAME, AND TREATMENT OF NEURODEGENERATIVE DISEASES” (Shenzhen Profound-View Pharma Tech Co., Ltd, priority 2019, published 2021)

Assays:
RGC-5 cells = test: H2O2-induced glaucoma cell (RGC-5) model, CCK-8 cell viability; assay type: cell-based; details: 20 ppm of GSH and 100 μM of H2O2, 24 hours
Description: RGC-5 cells in logarithmic growth phase were diluted with complete medium (DMEM medium+10% FBS+1% penicillin-streptomycin) into a cell suspension with a density of 5×10^4/mL, inoculated with 100 μL per well in 96-well plates. The cells were cultured at 37° C. in a 5% CO2 incubator. After the cells were attached, the original culture solution was discarded, and 50 μL of different concentrations of CuNCs prepared from maintenance medium (DMEM medium+2% FBS+1% penicillin-streptomycin) were added to different wells. The final concentrations were 0.5, 5 and 20 ppm respectively (i.e. groups 5, 6, 7 respectively in FIG. 19). After pretreatment for 2 h, about 50 μL of H2O2 (final concentration of 105 μM) was added. The cells were incubated for 24 h, and 10% CCK-8 was added to each well for 4 h. The absorbance values of the respective wells were measured at the wavelength of 450 nm to evaluate the protection effect of CuNCs against H2O2-induced damages. In the above experiments, provided were a blank control group in which cells were not treated, a model control group in which cells were treated with 105 μM H2O2, a CuNCs control group in which 100 ppm of CuNCs were added but no H2O2 was added, and a ligand control group in which 20 ppm ligand and 105 μM H2O2 were added (i.e. groups 1, 2, 3, 4 respectively in FIG. 19).

α-syn = biological target: T1, α-syn (Homo sapiens, UniProt P37840); test: α-syn aggregation kinetics, ThT fluorescent labeling; assay type: biochemical; details: 35 μM α-syn, 5 ppm CuNCs or ligand alone, 37° C., 70 hours
T1 construct: purchased Bachem Corp
Description: CuNCs modified with different ligands were prepared according to literatures. Thioflavin T (abbreviation: ThT) is a highly sensitive fluorescent marker used to identify the presence of amyloid. […] When ThT encounters amyloid polypeptide or protein with a fiber structure, it will immediately adjacent to the amyloid polypeptides or proteins and its fluorescence intensity will increase exponentially. Therefore, ThT is widely used as a maker to monitor amyloidosis of peptides or proteins. This embodiment adopts ThT fluorescent labeling method to monitor the kinetics process of fibrosis aggregation of α-syn in the presence of CuNCs. The specific experiment method is as follows.
Pretreatment of α-syn monomers: Dissolve freeze-dried α-syn powder (Bachem Corp.) in HFIP to obtain a 1 g/L α-syn solution. […]
Sample preparation and detection: Add ligand modified CuNCs to α-syn PBS solution to reach final concentrations of 5 ppm and 35 μM for CuNCs and α-syn, respectively. Incubate the solution continuously in a 96-well plate at 37° C., monitor the fluorescence intensity by microplate reader every 10 minutes, and characterize the kinetics process of α-syn aggregation through the change of fluorescence intensity of ThT. […]

SH-sy5y cells = test: MPP+ induced PD cells (SH-sy5y) model, CCK-8 cell viability; details: 1 mM MPP+, ligand 20 ppm, 24 h
Description: 1) Take SH-sy5y cells in the logarithmic growth phase. Dilute them with complete medium to form a cell suspension with a cell density of 5×10^4/mL. Plate 200 μl of the cell suspension into each well of a 96-well plate and cultivate in an environment of 37° C. and 5% CO2 in an incubator. The sample is added after the cells are attached.
2) Add 100 μL of ligand-modified CuNCs samples or ligand-modified copper nanoparticles samples with different particle sizes, which are prepared using maintenance medium to make the final concentration being 0.1 ppm, 1 ppm, 5 ppm, 10 ppm and 20 ppm, respectively. After 2 hours of pretreatment with ligand-modified CuNCs, the different groups of cells were added with MPP^+ (final concentration is 1 mM). […] Then the cells were cultured at 37° C. for 24 h. After centrifugation to remove the culture medium, 100 μL maintenance medium containing 10% CCK-8 were added to each well, and then incubate for 4 h. The absorbance of each well was then measured at 450 nm. The absorbance could reflect the pre-protective and curative effects of ligand-modified CuNCs against MPP^+ lesion.

N[C@@H](CCC(=O)N[C@@H](CS)C(=O)NCC(=O)O)C(=O)O [GSH, L-glutathione]
cell viability, ligand control group (RGC-5 cells): 56.5±5.9%
α-syn aggregation and fibrosis (ThT fluorescence intensity) (α-syn): does not have an obvious effect
cell viability, ligand control group (SH-sy5y cells): 56.9±3.4%
